The numbers were not newly measured in US11666623B2, “Tetramaleimide linkers and use thereof” (NewBio Therapeutics, Inc., priority 2017, dated 2023), which cites them from elsewhere.

The data set relates to human carcinoma lines. The settings on record: cited from earlier work.

The IC50 is the concentration at which inhibition is half-maximal. For the compound `COc1cccc2c1C(=O)c1c(O)c3c(c(O)c1C2=O)C[C@@](O)(C(=O)CO)C[C@@H]3O[C@H]1C[C@H](N)[C@H](O)[C@H](C)O1` [doxorubicin, Doxorubicin], the IC50 is 100 to 200 nM.
